The structures appear in SMILES notation. Where two headings read alike, the source gives them in different places.

The record followed here is article doi:10.1101/2023.03.24.534094v2 (biorxiv, 2023).

Experiment in all cases: biochemical
Test [1] deals with BRAF (Homo sapiens, UniProt P15056).
The target in test [2] is CHK2 (Homo sapiens, UniProt O96017).
The target in test [3] is T1, DRAK2 (Homo sapiens, UniProt O94768).
T1 sequence (O94768 1-372): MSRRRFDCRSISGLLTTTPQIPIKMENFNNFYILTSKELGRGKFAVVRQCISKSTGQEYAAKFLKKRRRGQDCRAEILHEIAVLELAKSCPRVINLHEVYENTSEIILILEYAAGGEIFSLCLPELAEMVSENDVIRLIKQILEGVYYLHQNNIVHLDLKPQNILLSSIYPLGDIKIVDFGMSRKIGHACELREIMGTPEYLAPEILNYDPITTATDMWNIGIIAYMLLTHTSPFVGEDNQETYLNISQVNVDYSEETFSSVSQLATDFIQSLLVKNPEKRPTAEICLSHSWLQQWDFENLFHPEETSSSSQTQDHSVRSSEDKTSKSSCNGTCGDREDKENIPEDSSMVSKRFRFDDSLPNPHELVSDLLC

For test [4], the target named is T2, MAP2K4 (Homo sapiens, UniProt P45985).
T2 sequence (P45985 1-399): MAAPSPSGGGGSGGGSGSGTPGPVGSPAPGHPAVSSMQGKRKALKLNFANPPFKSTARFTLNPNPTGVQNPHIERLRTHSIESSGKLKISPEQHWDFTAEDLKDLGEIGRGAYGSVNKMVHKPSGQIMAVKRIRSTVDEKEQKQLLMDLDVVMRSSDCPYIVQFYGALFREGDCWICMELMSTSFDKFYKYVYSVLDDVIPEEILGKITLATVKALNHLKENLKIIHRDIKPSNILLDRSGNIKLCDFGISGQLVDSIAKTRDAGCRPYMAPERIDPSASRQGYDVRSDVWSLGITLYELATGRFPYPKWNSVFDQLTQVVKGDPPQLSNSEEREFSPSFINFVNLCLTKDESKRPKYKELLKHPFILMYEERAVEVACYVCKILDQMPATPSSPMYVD

In test [5] the target is SRPK1 (Homo sapiens, UniProt Q96SB4).
Test [6] deals with STLK3 (Homo sapiens, UniProt Q9UEW8).
For test [7], the target named is T3, TLK1 (Homo sapiens, UniProt Q9UKI8).
T3 sequence (Q9UKI8 1-766): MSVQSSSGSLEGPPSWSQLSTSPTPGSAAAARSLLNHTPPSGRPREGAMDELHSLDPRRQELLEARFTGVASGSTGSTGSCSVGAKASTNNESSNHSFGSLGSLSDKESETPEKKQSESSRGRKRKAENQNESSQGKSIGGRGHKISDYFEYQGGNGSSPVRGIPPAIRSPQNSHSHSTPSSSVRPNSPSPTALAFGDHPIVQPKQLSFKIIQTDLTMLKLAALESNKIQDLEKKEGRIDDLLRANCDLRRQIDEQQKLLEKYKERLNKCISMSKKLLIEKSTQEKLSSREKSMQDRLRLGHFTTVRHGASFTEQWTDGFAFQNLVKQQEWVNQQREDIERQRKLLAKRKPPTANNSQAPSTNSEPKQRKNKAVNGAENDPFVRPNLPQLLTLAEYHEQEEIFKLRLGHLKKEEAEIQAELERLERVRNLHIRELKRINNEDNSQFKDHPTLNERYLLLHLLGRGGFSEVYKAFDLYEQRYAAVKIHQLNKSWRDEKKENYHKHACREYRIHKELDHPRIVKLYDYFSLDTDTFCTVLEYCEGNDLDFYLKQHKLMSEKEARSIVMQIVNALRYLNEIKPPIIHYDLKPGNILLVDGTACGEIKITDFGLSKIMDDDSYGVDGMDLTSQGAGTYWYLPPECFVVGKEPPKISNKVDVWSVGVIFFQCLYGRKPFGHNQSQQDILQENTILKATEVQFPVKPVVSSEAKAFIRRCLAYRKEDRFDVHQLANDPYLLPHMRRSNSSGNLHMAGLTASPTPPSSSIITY

Test [8] deals with p38a (Homo sapiens, UniProt Q16539).
For test [9], the target named is T4, NQO2A (Homo sapiens, UniProt P16083).
T4 sequence (P16083 1-231): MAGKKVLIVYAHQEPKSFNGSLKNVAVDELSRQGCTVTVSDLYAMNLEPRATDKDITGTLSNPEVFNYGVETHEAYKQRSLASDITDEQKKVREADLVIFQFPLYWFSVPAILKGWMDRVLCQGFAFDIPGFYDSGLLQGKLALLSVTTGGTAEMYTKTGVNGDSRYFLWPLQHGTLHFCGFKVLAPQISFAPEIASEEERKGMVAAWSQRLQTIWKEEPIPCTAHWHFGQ

SRPK1, sequence (Q96SB4 whole entry): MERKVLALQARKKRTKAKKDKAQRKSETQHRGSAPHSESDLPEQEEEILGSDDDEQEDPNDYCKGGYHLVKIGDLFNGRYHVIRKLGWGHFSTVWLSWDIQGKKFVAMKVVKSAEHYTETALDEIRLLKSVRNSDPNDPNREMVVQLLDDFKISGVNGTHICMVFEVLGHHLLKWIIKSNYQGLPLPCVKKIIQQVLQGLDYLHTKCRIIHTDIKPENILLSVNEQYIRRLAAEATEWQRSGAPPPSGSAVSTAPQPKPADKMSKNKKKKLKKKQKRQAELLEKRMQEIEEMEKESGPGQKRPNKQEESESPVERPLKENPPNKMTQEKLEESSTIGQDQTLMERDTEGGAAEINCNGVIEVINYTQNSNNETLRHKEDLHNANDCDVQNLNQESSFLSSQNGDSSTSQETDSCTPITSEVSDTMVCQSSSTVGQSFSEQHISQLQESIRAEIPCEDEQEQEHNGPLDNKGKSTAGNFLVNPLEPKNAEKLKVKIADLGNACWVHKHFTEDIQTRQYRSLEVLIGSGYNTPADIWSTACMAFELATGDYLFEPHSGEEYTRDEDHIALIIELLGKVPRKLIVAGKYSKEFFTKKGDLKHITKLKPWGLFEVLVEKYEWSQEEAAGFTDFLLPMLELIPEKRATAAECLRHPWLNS
p38a, sequence (Q16539 whole entry): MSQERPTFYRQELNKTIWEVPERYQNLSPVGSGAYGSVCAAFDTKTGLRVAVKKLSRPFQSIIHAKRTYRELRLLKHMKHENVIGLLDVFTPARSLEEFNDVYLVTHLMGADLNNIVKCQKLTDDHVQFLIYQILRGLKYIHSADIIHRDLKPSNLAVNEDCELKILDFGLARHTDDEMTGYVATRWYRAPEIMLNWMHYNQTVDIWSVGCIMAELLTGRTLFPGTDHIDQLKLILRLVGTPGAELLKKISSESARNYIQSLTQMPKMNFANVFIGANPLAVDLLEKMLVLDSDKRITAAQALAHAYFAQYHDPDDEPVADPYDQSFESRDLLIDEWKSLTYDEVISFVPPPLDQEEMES
BRAF, sequence (P15056 whole entry): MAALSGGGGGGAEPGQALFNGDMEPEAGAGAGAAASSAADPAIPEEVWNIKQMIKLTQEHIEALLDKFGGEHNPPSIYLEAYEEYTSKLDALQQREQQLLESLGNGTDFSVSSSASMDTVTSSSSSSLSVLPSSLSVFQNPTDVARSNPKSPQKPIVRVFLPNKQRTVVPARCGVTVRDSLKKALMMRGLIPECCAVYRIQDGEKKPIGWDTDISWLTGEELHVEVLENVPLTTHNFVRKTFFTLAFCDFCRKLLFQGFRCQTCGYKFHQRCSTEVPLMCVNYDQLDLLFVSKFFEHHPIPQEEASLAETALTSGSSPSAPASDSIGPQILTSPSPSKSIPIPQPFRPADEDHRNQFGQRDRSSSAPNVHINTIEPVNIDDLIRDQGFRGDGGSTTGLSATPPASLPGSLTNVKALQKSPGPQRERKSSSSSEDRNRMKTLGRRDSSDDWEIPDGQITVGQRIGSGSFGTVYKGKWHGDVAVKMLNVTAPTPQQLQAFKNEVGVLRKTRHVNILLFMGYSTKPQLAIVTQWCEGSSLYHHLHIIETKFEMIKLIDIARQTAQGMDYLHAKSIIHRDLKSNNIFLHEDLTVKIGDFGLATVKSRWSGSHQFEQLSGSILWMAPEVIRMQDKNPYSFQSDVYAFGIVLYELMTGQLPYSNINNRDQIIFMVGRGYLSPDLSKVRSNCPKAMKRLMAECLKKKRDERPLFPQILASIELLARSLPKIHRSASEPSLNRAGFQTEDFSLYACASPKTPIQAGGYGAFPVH
CHK2, sequence (O96017 whole entry): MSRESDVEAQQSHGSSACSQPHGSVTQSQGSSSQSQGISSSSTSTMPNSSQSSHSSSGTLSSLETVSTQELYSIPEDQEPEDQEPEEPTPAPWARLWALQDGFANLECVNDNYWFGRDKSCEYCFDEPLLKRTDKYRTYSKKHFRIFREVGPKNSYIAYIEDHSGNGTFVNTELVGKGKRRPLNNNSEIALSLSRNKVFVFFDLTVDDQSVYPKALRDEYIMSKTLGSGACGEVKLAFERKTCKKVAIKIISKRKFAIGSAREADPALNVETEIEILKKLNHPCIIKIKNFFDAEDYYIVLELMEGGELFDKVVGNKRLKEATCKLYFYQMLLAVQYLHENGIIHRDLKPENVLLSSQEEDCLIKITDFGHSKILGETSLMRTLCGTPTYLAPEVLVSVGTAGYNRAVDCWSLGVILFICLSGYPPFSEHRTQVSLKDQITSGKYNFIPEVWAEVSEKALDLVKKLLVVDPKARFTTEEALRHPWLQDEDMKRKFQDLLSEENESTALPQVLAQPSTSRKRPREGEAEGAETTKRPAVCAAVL

Turning to `CNc1ncc2cc(-c3ccc(-c4cccc(C)n4)cc3Cl)c(=O)n(CC3OCC(N)CO3)c2n1` (centres unmarked) [compound 2, G-5555], the “dTm G-5555 (2)” value in test [1] (10 µM, binder) is 3.9 °C; in test [2] (10 µM, binder), 0.9 °C; in test [3] (10 µM, binder) it was -0.3 °C; in test [4] (10 µM, binder) it was 6.4 °C; in [5] (10 µM, binder) it was -0.4 °C; in test [6] (10 µM, binder) it was 0.6 °C. Also, the “dTm G-5555 (2)” value in test [7] (10 µM, binder) is -0.3 °C; in test [8] (10 µM, binder), 1.4 °C.

As to `CNc1ncc2cc(-c3ccccc3Cl)c(=O)n(CCCCN)c2n1` [compound 4, 8-(4-Aminobutyl)-6-(2-chlorophenyl)-2-(methylamino)pyrido[2,3-d]pyrimidin-7(8H)-one], the ΔTm at 10 µM is 12.2 °C in test [1] (read-out: dTm MR21 (4)); 0.9 °C in test [2] (read-out: dTm MR21 (4)); -0.5 °C in [3] (read-out: dTm MR21 (4)); 3.3 °C in test [4] (read-out: dTm MR21 (4)); -1 °C in test [9] (read-out: dTm MR21 (4)); 0.6 °C in [5] (read-out: dTm MR21 (4)). The ΔTm at 10 µM in test [6] (read-out: dTm MR21 (4)) was -1.1 °C; in test [7] (read-out: dTm MR21 (4)) it was 0.5 °C; in [8] (read-out: dTm MR21 (4)) it was 8.8 °C.

`CNc1ncc2cc(-c3cc(Br)ccc3Cl)c(=O)n(C[C@H]3OC[C@H](N)CO3)c2n1` [compound 7, 8-(((2r,5r)-5-Amino-1,3-dioxan-2-yl)methyl)-6-(5-bromo-2-chlorophenyl)-2-(methylamino)pyrido[2,3-d]pyrimidin-7(8H)-one]: the ΔTm at 10 µM in test [1] (read-out: dTm 7) is 8.3 °C; in test [2] (read-out: dTm 7), 0.2 °C; in test [3] (read-out: dTm 7) it was 0.1 °C; in test [4] (read-out: dTm 7), 2.1 °C; in test [9] (read-out: dTm 7) it was 0.6 °C; in test [5] (read-out: dTm 7) it was 0.1 °C. Besides, the figures for the ΔTm at 10 µM in [6] (read-out: dTm 7), in [7] (read-out: dTm 7) and in [8] (read-out: dTm 7) were 0 °C, 0.9 °C and 5.3 °C, respectively.

Consider `CNc1ncc2cc(-c3cc(Br)ccc3Cl)c(=O)n(CCCCN)c2n1` [compound 6, 8-(4-Aminobutyl)-6-(5-bromo-2-chlorophenyl)-2-(methylamino)pyrido[2,3-d]pyrimidin-7(8H)-one], for which the ΔTm at 10 µM in [1] (read-out: dTm 6) was 10.8 °C; in test [2] (read-out: dTm 6), 0.4 °C; in test [3] (read-out: dTm 6), -0.2 °C; in test [4] (read-out: dTm 6) it was 2.5 °C; in test [9] (read-out: dTm 6), 0 °C; in test [5] (read-out: dTm 6), 0.1 °C. Moreover, the ΔTm at 10 µM amounted to 0.2 °C in test [6] (read-out: dTm 6), 0 °C in [7] (read-out: dTm 6) and 5.6 °C in [8] (read-out: dTm 6).

For `CNc1ncc2cc(-c3cc(F)ccc3F)c(=O)n(CCCCN)c2n1` [compound 5, 8-(4-Aminobutyl)-6-(2,5-difluorophenyl)-2-(methylamino)pyrido[2,3-d]pyrimidin-7(8H)-one], the ΔTm at 10 µM in test [1] (read-out: dTm MR22 (5)) is 9.2 °C; in test [2] (read-out: dTm MR22 (5)) it was 0.4 °C; in [3] (read-out: dTm MR22 (5)), 0.1 °C; in test [4] (read-out: dTm MR22 (5)) it was 1.5 °C; in [9] (read-out: dTm MR22 (5)), -0.2 °C; in test [5] (read-out: dTm MR22 (5)) it was 0.3 °C. The results for the ΔTm at 10 µM in test [6] (read-out: dTm MR22 (5)), in test [7] (read-out: dTm MR22 (5)) and in test [8] (read-out: dTm MR22 (5)) were 2.1 °C, -1.3 °C and -0.6 °C, respectively.
